Data published in patent US20130109682A1, “CYCLIC ETHER COMPOUNDS USEFUL AS KINASE INHIBITORS” (NOVARTIS AG, priority 2010, published 2013).
Where two headings read alike, the source gives them in different places.

Legend:
[1] = molecular target: PIM3 (Homo sapiens, UniProt Q86V86); assay: KinaseGlo Pim3 ATP depletion assay; assay type: biochemical
Summary of the method: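 Residual ATP was detected by luciferase luminescence once about half had been consumed. The reaction contained 5 nM enzyme, 100 μM BAD peptide (RSRHSSYPAGT) and 40 μM ATP in 50 mM HEPES pH 7.5, 5 mM MgCl2, 1 mM DTT and 0.05% BSA with 2.5% DMSO. Compound and enzyme/peptide were premixed 15 min before ATP.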

[2] = molecular target: KDR kinase (Homo sapiens, UniProt P35968); assay: KDR kinase inhibition assay (LanthaScreen TR-FRET); assay type: biochemical
KDR kinase, sequence (P35968 20-1356): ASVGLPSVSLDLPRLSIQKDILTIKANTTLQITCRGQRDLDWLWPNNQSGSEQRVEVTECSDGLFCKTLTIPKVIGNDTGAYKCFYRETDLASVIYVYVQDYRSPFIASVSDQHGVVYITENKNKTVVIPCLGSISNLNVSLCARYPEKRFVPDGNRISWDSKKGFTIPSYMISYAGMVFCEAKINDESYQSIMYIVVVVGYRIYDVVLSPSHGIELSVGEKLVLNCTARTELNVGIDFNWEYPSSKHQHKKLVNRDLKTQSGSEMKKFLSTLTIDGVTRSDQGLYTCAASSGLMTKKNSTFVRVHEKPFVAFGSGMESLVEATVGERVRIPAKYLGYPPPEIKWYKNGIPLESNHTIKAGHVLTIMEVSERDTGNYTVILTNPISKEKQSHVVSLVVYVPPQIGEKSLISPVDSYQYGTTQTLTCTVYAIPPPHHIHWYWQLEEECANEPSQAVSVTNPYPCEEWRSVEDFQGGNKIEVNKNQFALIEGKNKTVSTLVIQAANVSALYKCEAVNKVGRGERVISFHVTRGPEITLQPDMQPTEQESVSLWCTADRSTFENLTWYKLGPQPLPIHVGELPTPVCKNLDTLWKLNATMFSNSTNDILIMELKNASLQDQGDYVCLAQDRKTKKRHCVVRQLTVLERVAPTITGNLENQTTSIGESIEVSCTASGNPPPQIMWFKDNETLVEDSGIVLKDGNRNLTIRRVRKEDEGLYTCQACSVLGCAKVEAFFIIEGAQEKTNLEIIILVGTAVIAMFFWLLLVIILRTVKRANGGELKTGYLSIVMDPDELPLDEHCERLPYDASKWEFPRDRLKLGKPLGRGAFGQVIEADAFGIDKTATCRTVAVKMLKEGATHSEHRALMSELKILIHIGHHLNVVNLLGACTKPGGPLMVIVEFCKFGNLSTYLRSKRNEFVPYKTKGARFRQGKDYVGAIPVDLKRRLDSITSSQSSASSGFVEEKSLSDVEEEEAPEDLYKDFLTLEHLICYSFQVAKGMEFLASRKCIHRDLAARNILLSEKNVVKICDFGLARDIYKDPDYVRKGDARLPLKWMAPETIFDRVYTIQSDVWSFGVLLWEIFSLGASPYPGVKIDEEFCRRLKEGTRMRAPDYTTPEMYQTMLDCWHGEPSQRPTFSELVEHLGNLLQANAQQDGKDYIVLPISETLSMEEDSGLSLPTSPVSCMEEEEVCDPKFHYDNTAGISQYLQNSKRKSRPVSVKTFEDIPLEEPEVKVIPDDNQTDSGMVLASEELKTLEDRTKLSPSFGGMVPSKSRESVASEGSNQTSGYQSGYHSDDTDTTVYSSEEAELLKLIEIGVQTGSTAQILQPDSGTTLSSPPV
Procedure: KDR Kinase Inhibition Assay
LanthaScreen™ is the detection of Time-Resolved Fluorescence Resonance Energy Transfer (TR-FRET) using lanthanide chelates to measure interactions between various binding partners. The application of TR-FRET to assay kinase activity was first described by Mathis (1995). A TR-FRET assay was used to measure KDR kinase inhibitory activity. The assay panel was run on a Biomek FX liquid handling workstations. To the assay plates containing 50 nL compound or control solutions, 4.5 μL of buffer A (50 mM TRIS-HCl pH 7.4, 2 mM DTT, 0.02% Tween 20, 0.02 mM Na3VO4, H2O nanpure) including a generic concentration of ATP (2 μM f.c.) was added per well, followed by 4.5 μL of buffer B (4 uM ATP in Buffer A) including a generic concentration of polyEAY (50 nM f.c.), KDR kinase, and divalent cations. Final concentration of kinase and cations were: [KDR kinase]=0.38 nM, [Mg]=10 mM, [Ca]=1 mM. After 1 hour of incubation the kinase reactions were stopped by the addition of 4.5 μL of stop solution D (50 mM EDTA, 20 mM TRIS-HCl pH 7.4, 0.04% NP-40) immediately followed by 4.5 μL of buffer A (50 mM TRIS-HCl pH 7.4, 2 mM DTT, 0.02% Tween 20, 0.02 mM Na3VO4, H2O nanpure) including the Tb-labeled P-20 antibody to give a total detection volume of 18 μL. After an incubation time of 45 min in the dark, the plates were transferred into the Pherastar fluorescence reader for counting. The effect of compound on the enzymatic activity was obtained from the linear progress curves and determined from one reading (end point measurement).

[3] = molecular target: T1, hERG (Homo sapiens, UniProt Q12809); assay: hERG binding assay ([3H] dofetilide displacement); settings: dofetilide displacement; read-out: HERGdof IC50
T1 construct: host or cells: crude membrane suspension
T1 sequence (Q12809 whole entry): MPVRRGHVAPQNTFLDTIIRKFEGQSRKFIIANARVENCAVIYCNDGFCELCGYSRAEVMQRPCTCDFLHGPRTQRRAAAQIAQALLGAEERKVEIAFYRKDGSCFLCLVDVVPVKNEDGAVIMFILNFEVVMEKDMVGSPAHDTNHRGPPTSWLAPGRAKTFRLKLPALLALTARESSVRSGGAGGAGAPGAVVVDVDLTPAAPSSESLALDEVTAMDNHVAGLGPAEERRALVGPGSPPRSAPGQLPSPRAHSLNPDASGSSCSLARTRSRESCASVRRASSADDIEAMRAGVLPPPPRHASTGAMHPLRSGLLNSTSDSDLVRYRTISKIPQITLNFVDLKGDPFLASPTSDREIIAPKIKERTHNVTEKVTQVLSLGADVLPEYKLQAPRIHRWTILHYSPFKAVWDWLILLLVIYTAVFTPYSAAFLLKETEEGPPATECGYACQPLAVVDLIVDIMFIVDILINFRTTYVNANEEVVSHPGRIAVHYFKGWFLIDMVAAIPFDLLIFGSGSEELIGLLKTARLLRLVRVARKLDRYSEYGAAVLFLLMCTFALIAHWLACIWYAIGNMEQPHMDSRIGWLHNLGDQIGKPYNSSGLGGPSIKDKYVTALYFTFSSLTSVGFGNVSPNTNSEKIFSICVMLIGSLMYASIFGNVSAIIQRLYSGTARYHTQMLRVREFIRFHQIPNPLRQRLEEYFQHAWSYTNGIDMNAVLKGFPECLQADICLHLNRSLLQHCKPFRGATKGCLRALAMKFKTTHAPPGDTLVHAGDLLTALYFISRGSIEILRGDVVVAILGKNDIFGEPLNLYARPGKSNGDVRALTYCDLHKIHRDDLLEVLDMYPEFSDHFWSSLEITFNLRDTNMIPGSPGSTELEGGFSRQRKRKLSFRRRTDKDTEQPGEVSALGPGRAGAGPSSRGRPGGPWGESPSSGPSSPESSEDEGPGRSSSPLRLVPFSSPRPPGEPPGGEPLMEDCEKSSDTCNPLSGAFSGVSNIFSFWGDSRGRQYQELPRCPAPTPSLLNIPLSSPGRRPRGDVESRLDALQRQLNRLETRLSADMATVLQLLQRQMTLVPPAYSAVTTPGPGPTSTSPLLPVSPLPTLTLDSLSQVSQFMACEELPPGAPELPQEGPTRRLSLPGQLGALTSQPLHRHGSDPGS
Summary of the method: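 Displacement of 2.5 nM [3H]dofetilide from crude hERG membranes (ca. 15 μg protein) by filtration binding, 90 min at room temperature, 0.5% DMSO final. Non-specific binding defined with 25 μM terfenadine; compounds run as 9-point duplicate curves from 30 μM to 3 nM.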

[4] = molecular target: PIM2 (Homo sapiens, UniProt Q9P1W9); assay: Pim 2 AlphaScreen assay (high ATP); assay type: biochemical; settings: read-out: Pim2 IC50
PIM2, sequence (Q9P1W9 whole entry): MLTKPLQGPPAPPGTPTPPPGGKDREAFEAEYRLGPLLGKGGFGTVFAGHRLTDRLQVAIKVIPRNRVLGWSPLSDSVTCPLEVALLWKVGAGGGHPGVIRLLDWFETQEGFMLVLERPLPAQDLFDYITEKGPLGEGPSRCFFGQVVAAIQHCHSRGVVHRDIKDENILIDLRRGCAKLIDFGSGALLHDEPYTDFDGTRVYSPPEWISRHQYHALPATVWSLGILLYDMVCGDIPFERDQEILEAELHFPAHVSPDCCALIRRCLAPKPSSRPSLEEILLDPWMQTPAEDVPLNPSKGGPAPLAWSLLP
Summary of the method: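 IC50 values rest on detection of phosphorylated Bad peptide: after a ~2 h kinase reaction, an EDTA stop buffer containing anti-phospho Ser/Thr antibody, Protein A and streptavidin AlphaScreen beads was added and read after overnight dark incubation. ATP was high (11-125× Km), with 2.5% DMSO in pH 7.5 Hepes buffer containing MgCl2, BSA, Tween-20 and DTT.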

SMILES: C[C@H]1O[C@@H](c2ccncc2NC(=O)c2nc(-c3ccccc3)cnc2N)C[C@@H](O)[C@]1(C)O [Example 84, 3-amino-N-(4-((2R,4R,5S,6R)-4,5-dihydroxy-5,6-dimethyltetrahydro-2H-pyran-2-yl)pyridin-3-yl)-6-phenylpyrazine-2-carboxamide]
- IC50 [1]: 3 nM
- IC50 [2]: 16 nM
- IC50 [3]: > 30000 nM

SMILES: C[C@H]1O[C@@H](c2ccncc2NC(=O)c2nc(-c3ccccc3)ncc2N)C[C@@H](O)[C@]1(C)O [Example 32, 5-amino-N-(4-((2R,4R,5S,6R)-4,5-dihydroxy-5,6-dimethyltetrahydro-2H-pyran-2-yl)pyridin-3-yl)-2-phenylpyrimidine-4-carboxamide]
- IC50 [1]: 3 nM
- IC50 [2]: > 10000 nM
- IC50 [3]: > 30000 nM

SMILES: CC[C@H]1O[C@@H](c2ccncc2NC(=O)c2nc(-c3ccccc3)ncc2N)C[C@@H](O)[C@@H]1O [Example 39, 5-amino-N-(4-((2R,4R,5S,6R)-6-ethyl-4,5-dihydroxytetrahydro-2H-pyran-2-yl)pyridin-3-yl)-2-phenylpyrimidine-4-carboxamide]
- IC50 [1]: 4 nM
- IC50 [2]: > 10000 nM
- IC50 [3]: > 30000 nM

SMILES: C=C1[C@@H](O)C[C@@H](c2ccncc2NC(=O)c2nc(-c3ccccc3)cnc2N)OC12CC2 [Example 5, 3-amino-N-(4-((5S,7S)-7-hydroxy-8-methylene-4-oxaspiro[2.5]octan-5-yl)pyridin-3-yl)-6-phenylpyrazine-2-carboxamide]
- IC50 [1]: 37.3 nM
- IC50 [2]: 10 nM
- IC50 [3]: > 30000 nM

SMILES: C[C@@H]1O[C@H](c2ccncc2NC(=O)c2nc(-c3ccccc3)cnc2N)[C@@H](F)[C@H](O)[C@@]1(C)O [Example 63, 3-amino-N-(4-((2R,3S,4R,5R,6S)-3-fluoro-4,5-dihydroxy-5,6-dimethyltetrahydro-2H-pyran-2-yl)pyridin-3-yl)-6-phenylpyrazine-2-carboxamide]
- IC50 [1]: 31 nM
- IC50 [2]: 220 nM
- IC50 [3]: > 30000 nM

SMILES: CC[C@@H]1O[C@H](c2ccncc2NC(=O)c2nc(-c3ccccc3)cnc2N)C[C@H](N)[C@H]1O [Example 342, 3-amino-N-(4-((2S,4S,5R,6S)-4-amino-6-ethyl-5-hydroxytetrahydro-2H-pyran-2-yl)pyridin-3-yl)-6-phenylpyrazine-2-carboxamide]
- IC50 ([2]; TR-FRET assay): 510 nM
- IC50 [4]: 1370 nM

SMILES: C[C@@H]1O[C@H](c2ccncc2NC(=O)c2nc(-c3ccccc3)cnc2N)C[C@H](O)[C@@]1(C)O [Example 86, 3-amino-N-(4-((2S,4S,5R,6S)-4,5-dihydroxy-5,6-dimethyltetrahydro-2H-pyran-2-yl)pyridin-3-yl)-6-phenylpyrazine-2-carboxamide]
- IC50 [1]: 15 nM
- IC50 [2]: 300 nM
- IC50 [3]: 25000 nM

SMILES: CC[C@]1(O)[C@H](N)C[C@H](c2ccncc2NC(=O)c2nc(-c3ccccc3)cnc2N)O[C@@H]1C [Example 187, 3-amino-N-(4-((2R,4R,5S,6R)-4-amino-5-ethyl-5-hydroxy-6-methyltetrahydro-2H-pyran-2-yl)pyridin-3-yl)-6-phenylpyrazine-2-carboxamide]
- IC50 ([2]; TR-FRET assay): 42 nM
- IC50 [4]: 86.3 nM

SMILES: C[C@]1(O)[C@@H](N)C[C@H](c2ccncc2NC(=O)c2nc(-c3ccccc3)cnc2N)OC12CC2 [Example 351, 3-amino-N-(4-((5R,7S,8S)-7-amino-8-hydroxy-8-methyl-4-oxaspiro[2.5]octan-5-yl)pyridin-3-yl)-6-phenylpyrazine-2-carboxamide]
- IC50 ([2]; TR-FRET assay): 7 nM
- IC50 [4]: 538 nM

SMILES: C[C@H]1O[C@@H](c2ccncc2NC(=O)c2nc(-c3ccccc3)cnc2N)[C@H](F)[C@@H](O)[C@]1(C)O [Example 58, 3-amino-N-(4-((2S,3R,4S,5S,6R)-3-fluoro-4,5-dihydroxy-5,6-dimethyltetrahydro-2H-pyran-2-yl)pyridin-3-yl)-6-phenylpyrazine-2-carboxamide]
- IC50 [1]: 27 nM
- IC50 [2]: 280 nM
- IC50 [3]: > 30000 nM

SMILES: Nc1ncc(-c2ccccc2)nc1C(=O)Nc1cnccc1[C@@H]1C[C@H](N)[C@@H]2CCC[C@@H]2O1 [Example 233, 3-amino-N-(4-((2S,4S,4aS,7aS)-4-aminooctahydrocyclopenta[b]pyran-2-yl)pyridin-3-yl)-6-phenylpyrazine-2-carboxamide]
- IC50 ([2]; TR-FRET assay): 3000 nM
- IC50 [4]: 5140 nM

SMILES: CC(C)(C)[C@H]1O[C@@H](c2ccncc2NC(=O)c2nc(-c3ccccc3)cnc2N)C[C@H](N)[C@@H]1O [Example 286, 3-amino-N-(4-((2R,4S,5S,6R)-4-amino-6-tert-butyl-5-hydroxytetrahydro-2H-pyran-2-yl)pyridin-3-yl)-6-phenylpyrazine-2-carboxamide]
- IC50 ([2]; TR-FRET assay): 180 nM
- IC50 [4]: 64.9 nM

SMILES: CC(C)[C@@H]1C[C@H](N)C[C@H](c2ccncc2NC(=O)c2nc(-c3ccccc3)cnc2N)O1 [Example 291, 3-amino-N-(4-((2R,4S,6S)-4-amino-6-isopropyltetrahydro-2H-pyran-2-yl)pyridin-3-yl)-6-phenylpyrazine-2-carboxamide]
- IC50 ([2]; TR-FRET assay): 340 nM
- IC50 [4]: 19.3 nM

SMILES: CC(C)[C@H]1C[C@@H](N)C[C@@H](c2ccncc2NC(=O)c2nc(-c3ccccc3)cnc2N)O1 [Example 292, 3-amino-N-(4-((2S,4R,6R)-4-amino-6-isopropyltetrahydro-2H-pyran-2-yl)pyridin-3-yl)-6-phenylpyrazine-2-carboxamide]
- IC50 ([2]; TR-FRET assay): 4300 nM
- IC50 [4]: 764 nM

SMILES: Nc1ncc(-c2ccccc2)nc1C(=O)Nc1cnccc1[C@H]1C[C@@H](O)[C@H](O)[C@@H](CCl)O1 [Example 36, 3-amino-N-(4-((2R,4R,5S,6S)-6-(chloromethyl)-4,5-dihydroxytetrahydro-2H-pyran-2-yl)pyridin-3-yl)-6-phenylpyrazine-2-carboxamide]
- IC50 [1]: 2 nM
- IC50 [2]: 1 nM
- IC50 [3]: > 30000 nM
